The results in this text go back to patent US8791303B2, “Herbicides” (Syngenta Limited, priority 2009, dated 2014).

Type in all cases: in vivo
The test system of assay [1] is Lolium perenne (LOLPE). The assay can be described thus: Example A glasshouse herbicide test, post-emergence, LOLPE. To be noted: Rate 250 g/ha, sprayed after 8 days cultivation, evaluated after 13 days; for pest or weed control at 250 g/ha: Lolium perenne, post-emergence, 312 h, read-out: Post-Emergence Activity LOLPE (100=total damage to plant; 0=no damage to plant). The procedure: (§1) Seeds of a variety of test species are sown in standard soil in pots. After cultivation for one day (pre-emergence) or after 8 days cultivation (post-emergence) under controlled conditions in a glasshouse (at 24/16° C., day/night; 14 hours light; 65% humidity), the plants are sprayed with an aqueous spray solution derived from the formulation of the technical active ingredient in acetone/water (50:50) solution containing 0.5% Tween 20 (polyoxyethelyene sorbitan monolaurate, CAS RN 9005-64-5).
(§2) The test plants are then grown in a glasshouse under controlled conditions in a glasshouse (at 24/16° C., day/night; 14 hours light; 65% humidity) and watered twice daily. After 13 days for pre and post-emergence, the test is evaluated (100=total damage to plant; 0=no damage to plant).
(§3) Lolium perenne (LOLPE), Alopecurus myosuroides (ALOMY), Echinochloa crus-galli (ECHCG), Avena fatua (AVEFA)

The test system of assay [2] is Alopecurus myosuroides (ALOMY). Briefly: Example A glasshouse herbicide test, post-emergence, ALOMY. To be noted: Rate 250 g/ha, sprayed after 8 days cultivation, evaluated after 13 days; for pest or weed control at 250 g/ha: Alopecurus myosuroides, post-emergence, 312 h, read-out: Post-Emergence Activity ALOMY (100=total damage to plant; 0=no damage to plant). The procedure: as §1, §2, §3

In assay [3] the test system is Echinochloa crus-galli (ECHCG). The assay can be described thus: Example A glasshouse herbicide test, post-emergence, ECHCG. The settings on record: Rate 250 g/ha, sprayed after 8 days cultivation, evaluated after 13 days; for pest or weed control at 250 g/ha: Echinochloa crus-galli, post-emergence, 312 h, read-out: Post-Emergence Activity ECHCG (100=total damage to plant; 0=no damage to plant). On the procedure:
as §1, §2, §3

Assay [4] deals with Avena fatua (AVEFA). The assay can be described thus: Example A glasshouse herbicide test, post-emergence, AVEFA. To be noted: Rate 250 g/ha, sprayed after 8 days cultivation, evaluated after 13 days; for pest or weed control at 250 g/ha: Avena fatua, post-emergence, 312 h, read-out: Post-Emergence Activity AVEFA (100=total damage to plant; 0=no damage to plant). On the procedure: as §1, §2, §3

The test system of assay [5] is Lolium perenne (LOLPE). Briefly: Example A glasshouse herbicide test, pre-emergence, LOLPE. To be noted: Rate 250 g/ha, sprayed after cultivation for one day, evaluated after 13 days; for pest or weed control at 250 g/ha: Lolium perenne, pre-emergence, 312 h, read-out: Pre-Emergence Activity LOLPE (100=total damage to plant; 0=no damage to plant). The procedure:
as §1, §2, §3

The subject of assay [6] is Alopecurus myosuroides (ALOMY). Briefly: Example A glasshouse herbicide test, pre-emergence, ALOMY. The settings on record: Rate 250 g/ha, sprayed after cultivation for one day, evaluated after 13 days; for pest or weed control at 250 g/ha: Alopecurus myosuroides, pre-emergence, 312 h, read-out: Pre-Emergence Activity ALOMY (100=total damage to plant; 0=no damage to plant). On the procedure: as §1, §2, §3

Assay [7] has as its system Echinochloa crus-galli (ECHCG). Briefly: Example A glasshouse herbicide test, pre-emergence, ECHCG. To be noted: Rate 250 g/ha, sprayed after cultivation for one day, evaluated after 13 days; for pest or weed control at 250 g/ha: Echinochloa crus-galli, pre-emergence, 312 h, read-out: Pre-Emergence Activity ECHCG (100=total damage to plant; 0=no damage to plant). On the procedure: as §1, §2, §3

The test system of assay [8] is Avena fatua (AVEFA). Briefly: Example A glasshouse herbicide test, pre-emergence, AVEFA. The settings on record: Rate 250 g/ha, sprayed after cultivation for one day, evaluated after 13 days; for pest or weed control at 250 g/ha: Avena fatua, pre-emergence, 312 h, read-out: Pre-Emergence Activity AVEFA (100=total damage to plant; 0=no damage to plant). The procedure:
as §1, §2, §3

As to “2,2-dimethyl-propionic acid 4-(4-fluoro-benzyl)-3-oxo-2-(2,4,6-trimethyl-phenyl)-cyclopent-1-enyl ester [Compound B9]”, in the assay with Lolium perenne (LOLPE) [1], the “Post-Emergence Activity LOLPE (100=total damage to plant; 0=no damage to plant)” value was 80. In addition, the “Post-Emergence Activity ALOMY (100=total damage to plant; 0=no damage to plant)” value in assay [2] came out at 70. In addition, the “Post-Emergence Activity ECHCG (100=total damage to plant; 0=no damage to plant)” value in assay [3] was found to be 80. In the assay on Avena fatua (AVEFA) [4], the “Post-Emergence Activity AVEFA (100=total damage to plant; 0=no damage to plant)” value was 20. In addition, in the assay on Lolium perenne (LOLPE) [5], the “Pre-Emergence Activity LOLPE (100=total damage to plant; 0=no damage to plant)” value came to 100. In assay [6], the “Pre-Emergence Activity ALOMY (100=total damage to plant; 0=no damage to plant)” value turned out to be 90. Also, the “Pre-Emergence Activity ECHCG (100=total damage to plant; 0=no damage to plant)” value in assay [7] was 70. Moreover, the “Pre-Emergence Activity AVEFA (100=total damage to plant; 0=no damage to plant)” value with Avena fatua (AVEFA) [8] is 40.

In the case of `Cc1cc(C)c(C2C(=O)CC(CC3CCCCC3C)C2=O)c(C)c1` (stereo not drawn) [Compound A29], the pest or weed control at 250 g/ha is 90% in the assay on Lolium perenne (LOLPE) [1]; 0% in assay [2]; 50% in assay [3]; 0% with Avena fatua (AVEFA) [4]; 90% with Lolium perenne (LOLPE) [5]; 50% in assay [6]. Further, the pest or weed control at 250 g/ha came to 90% in assay [7] and 50% in the assay with Avena fatua (AVEFA) [8].

Turning to `COC1CCC(/C=C2\CC(=O)C(c3c(C)cc(C)cc3C)C2=O)CC1` (stereo not drawn) [Compound A39, 4-[1-(4-Methoxy-cyclohexyl)-meth-(E)-ylidene]-2-(2,4,6-trimethyl-phenyl)-cyclopentane-1,3-dione], the pest or weed control at 250 g/ha with Lolium perenne (LOLPE) [1] amounted to 50%; in assay [2], 90%; in assay [3], 100%; in the assay on Avena fatua (AVEFA) [4], 90%; in the assay on Lolium perenne (LOLPE) [5], 50%; in assay [6], 60%. The pest or weed control at 250 g/ha amounted to 100% in assay [7] and 80% in the assay with Avena fatua (AVEFA) [8].

As to `CC(=O)OC1CCC(CC2CC(=O)C(c3c(C)cc(C)cc3C)=C2OC(=O)C(C)(C)C)CC1` (stereo not drawn) [Compound B4], the pest or weed control at 250 g/ha was 90% in the assay with Lolium perenne (LOLPE) [1], 60% in assay [2], 70% in assay [3] and 80% with Avena fatua (AVEFA) [4].

In the case of `Cc1cc(C)c(C2=C(OC(=O)C(C)(C)C)CC(Cc3cccc(Oc4ccccc4)c3)C2=O)c(C)c1` (stereo not drawn) [Compound B7], the pest or weed control at 250 g/ha in the assay with Lolium perenne (LOLPE) [1] came out at 20%; in assay [2] it was 20%; in assay [3], 20%; in the assay on Avena fatua (AVEFA) [4], 0%; in the assay with Lolium perenne (LOLPE) [5], 20%; in assay [6], 30%. The pest or weed control at 250 g/ha (in assay [7]; with Avena fatua (AVEFA) [8]) was 0% each time.

Regarding `Cc1cc(C)c(C2=C(OC(=O)C(C)(C)C)CC(Cc3ccc(F)cc3)C2=O)c(C)c1` (stereo not drawn) [Compound B8], the pest or weed control at 250 g/ha in the assay on Lolium perenne (LOLPE) [1] was 70%; in assay [2] it was 40%; in assay [3], 40%; with Avena fatua (AVEFA) [4], 20%; with Lolium perenne (LOLPE) [5] it was 100%; in assay [6], 70%. The pest or weed control at 250 g/ha in assay [7] worked out at 50%; in the assay with Avena fatua (AVEFA) [8], 30%.

Take `Cc1cc(C)c(C2=C(OC(=O)C(C)(C)C)CC(Cc3ccccc3C)C2=O)c(C)c1` (stereo not drawn) [Compound B10]: the pest or weed control at 250 g/ha was 90% in the assay on Lolium perenne (LOLPE) [1]; 50% in assay [2]; 40% in assay [3]; 30% in the assay with Avena fatua (AVEFA) [4]; 100% with Lolium perenne (LOLPE) [5]; 30% in assay [6]. The pest or weed control at 250 g/ha in assay [7] was 30%; with Avena fatua (AVEFA) [8], 20%.

With `Cc1cc(C)c(C2=C(OC(=O)C(C)(C)C)CC(Cc3ccccc3)C2=O)c(C)c1` (stereo not drawn) [Compound B12], the pest or weed control at 250 g/ha with Lolium perenne (LOLPE) [1] was found to be 90%; in assay [2], 60%; in assay [3], 50%; in the assay with Avena fatua (AVEFA) [4], 30%; in the assay with Lolium perenne (LOLPE) [5], 90%; in assay [6], 30%. Moreover, the figures for the pest or weed control at 250 g/ha (in assay [7]; in the assay on Avena fatua (AVEFA) [8]) were 40% and 20%, respectively.

Turning to `Cc1cccc(CC2CC(OC(=O)C(C)(C)C)=C(c3c(C)cc(C)cc3C)C2=O)c1` (stereo not drawn) [Compound B13], the pest or weed control at 250 g/ha in the assay on Lolium perenne (LOLPE) [1] was 80%; in assay [2], 60%; in assay [3] it was 60%; in the assay on Avena fatua (AVEFA) [4], 30%; in the assay with Lolium perenne (LOLPE) [5] it was 70%; in assay [6], 40%. Also, the results for the pest or weed control at 250 g/ha (in assay [7]; in the assay with Avena fatua (AVEFA) [8]) were 60% and 20%, respectively.

Consider `Cc1cc(C)c(C2=C(OC(=O)C(C)(C)C)CC(Cc3ccc(C#N)cc3)C2=O)c(C)c1` (stereo not drawn) [Compound B14], for which the pest or weed control at 250 g/ha is 60% with Lolium perenne (LOLPE) [1]; 70% in assay [2]; 70% in assay [3]; 50% in the assay with Avena fatua (AVEFA) [4]; 80% in the assay with Lolium perenne (LOLPE) [5]; 60% in assay [6]. Moreover, the figures for the pest or weed control at 250 g/ha (in assay [7]; in the assay with Avena fatua (AVEFA) [8]) were 50% and 10%, respectively.

In the case of `Cc1cc(C)c(C2=C(OC(=O)C(C)(C)C)CC(Cc3cc(F)cc(F)c3)C2=O)c(C)c1` (stereo not drawn) [Compound B15], the pest or weed control at 250 g/ha was determined as 70% with Lolium perenne (LOLPE) [1]; 10% in assay [2]; 50% in assay [3]; 10% in the assay on Avena fatua (AVEFA) [4]; 70% in the assay with Lolium perenne (LOLPE) [5]; 20% in assay [6]. The pest or weed control at 250 g/ha amounted to 40% in assay [7] and 20% with Avena fatua (AVEFA) [8].

As to `Cc1cc(C)cc(CC2CC(OC(=O)C(C)(C)C)=C(c3c(C)cc(C)cc3C)C2=O)c1` (stereo not drawn) [Compound B16], the pest or weed control at 250 g/ha in the assay with Lolium perenne (LOLPE) [1] worked out at 40%; in assay [2], 30%; in assay [3], 50%; in the assay with Avena fatua (AVEFA) [4], 10%; in the assay on Lolium perenne (LOLPE) [5] it was 80%; in assay [6] it was 40%. Also, the pest or weed control at 250 g/ha in assay [7] was 50%; with Avena fatua (AVEFA) [8], 10%.

Regarding `Cc1cc(C)c(C2=C(OC(=O)C(C)(C)C)CC(Cc3ccc(S(C)(=O)=O)cc3)C2=O)c(C)c1` (stereo not drawn) [Compound B18], the pest or weed control at 250 g/ha is 50% in the assay with Lolium perenne (LOLPE) [1]; 70% in assay [2]; 80% in assay [3]; 80% with Avena fatua (AVEFA) [4]; 70% in the assay with Lolium perenne (LOLPE) [5]; 60% in assay [6]. The pest or weed control at 250 g/ha in assay [7] worked out at 80%; with Avena fatua (AVEFA) [8], 60%.

Regarding `COc1ccc(CC2CC(OC(=O)C(C)(C)C)=C(c3c(C)cc(C)cc3C)C2=O)cc1` (stereo not drawn) [Compound B19], the pest or weed control at 250 g/ha in the assay with Lolium perenne (LOLPE) [1] is 80%; in assay [2], 80%; in assay [3], 30%; with Avena fatua (AVEFA) [4], 60%; in the assay with Lolium perenne (LOLPE) [5] it was 80%; in assay [6] it was 40%. The pest or weed control at 250 g/ha was 10% in assay [7] and 30% in the assay on Avena fatua (AVEFA) [8].
